Measured values taken from patent publication US12174172B2, “Method for evaluating the efficacy of a composition in reducing the effects of cancer therapeutics on skin” (Johnson & Johnson Consumer Inc., priority 2019, dated 2024).

System: SkinEthic Reconstructed Human Epidermis (RHE)
Experiment: Skin barrier function: trans-epidermal water loss (TEWL) on reconstructed human epidermis
Type: cell-based
Conditions: SDS 0.5% topical
Experimental: The effect of drugs on the skin barrier function was assessed by measuring trans-epidermal water loss (TEWL) rates on SkinEthicTM Reconstructed Human Epidermis (RHE) model (Episkin, Lyon, France) using Tewitro® TW 24 (Courage+Khazaka electronic GmbH, Köln, Germany). This instrument allows 24 simultaneous measurements on RHE. TEWL was analyzed at 33° C. in an incubator. […] Petrolatum, a highly hydrophobic hydrocarbon, water-repelling and insoluble in water was used to block water evaporation at the RHE surface (negative control). […] DMSO was used in the same proportion in the vehicle. SkinEthicTM RHE (Episkin, Lyon, France), is an in vitro reconstructed human epidermis from normal human keratinocytes cultured on an inert polycarbonate filter at the air-liquid interface, in a chemically defined medium. This model exists at different stages of maturity. This model is histologically similar to in vivo human epidermis. See […].com/SkinEthic%20RHE. The Tewitro® TW 24 is a device that measures water evaporation from cultured tissue sets (wells in a plate with medium) in up to 24 wells simultaneously. See https://www.courage-[…].

sodium dodecyl sulfoxide [SDS]
increase of the TEWL rate (day 1): 98%
increase of the TEWL rate (day 2, afatinib 100 nM in the media): 77%
increase of the TEWL rate (day 5, afatinib 100 nM in the media): 58%
increase of the TEWL rate (day 7, afatinib 100 nM in the media): non-significant increase
